Source: US10351547B2, “Somatostatin modulators and uses thereof” (priority 2016, dated 2019)

What follows are compounds tested against human SSTR2 (Homo sapiens (Human), UniProt P30874) (assay: Human SSTR2 intracellular cAMP functional assay for agonists (HTRF)). Details: not given.
Type: cell-based
Procedure: Functional Assay for SSTR2 Agonists
General overview: All five SSTR subtypes are Gi coupled G-protein coupled receptors (GPCRs) that lead to decreases in intracellular cyclic AMP (cAMP) when activated by an agonist. […] Human SSTR2 intracellular cAMP assay is described below. The human SSTR1, 3, 4 and 5 assays follow the same protocol of SSTR2.
The cells are cultured at 37° C., 5% CO2 and 95% humidity. […] The cells are incubated for 20 minutes at 37° C. […] The cells are treated with 50 μL of lysis buffer (HRTF cAMP kit, Cisbio). […] The time-resolved fluorescent signal is read with a Tecan M1000Pro multiplate reader. The intracellular cAMP concentrations are calculated by regression to a standard curve and are plotted vs. the concentration of the compounds of the invention and the EC50 of the compounds are calculated using standard methods. All data manipulations are in GraphPad Prism v6.

Sequence of human SSTR2 (P30874 whole entry): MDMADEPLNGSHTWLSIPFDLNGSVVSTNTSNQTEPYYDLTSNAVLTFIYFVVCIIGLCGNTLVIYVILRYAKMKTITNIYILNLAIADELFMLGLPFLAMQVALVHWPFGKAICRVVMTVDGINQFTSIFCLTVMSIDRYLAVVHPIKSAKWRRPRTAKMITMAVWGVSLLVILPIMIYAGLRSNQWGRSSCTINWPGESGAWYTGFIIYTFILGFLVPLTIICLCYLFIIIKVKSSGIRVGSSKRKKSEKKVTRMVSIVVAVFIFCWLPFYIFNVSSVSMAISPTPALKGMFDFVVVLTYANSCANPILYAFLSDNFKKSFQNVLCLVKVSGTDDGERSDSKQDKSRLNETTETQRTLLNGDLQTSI

SMILES | EC50 [nM]
COC(=O)[C@@H]1CN(c2c(-c3cc(F)cc(F)c3)cnc3ccc(-c4cccc(C#N)c4O)cc23)CC[C@H]1N (relative stereo) [2-170, methyl (trans)-4-amino-1-[6-(3-cyano-2-hydroxyphenyl)-3-(3,5-difluorophenyl)quinolin-4-yl]piperidine-3-carboxylate] | 100 to 1000

Same assay, conditions: CHO-K1 cells stably expressing human SSTR2; NKH477-stimulated cAMP; read-out: EC50 (inhibition of cAMP activities via human SST2R)

SMILES | EC50 [nM]
Cc1cc(F)cc(-c2cnc3ccc(-c4cc(F)cc(C#N)c4O)cc3c2N2CC[C@H](N)[C@H](O)C2)c1 (relative stereo) [2-219, cis-3-{4-[4-amino-3-hydroxypiperidin-1-yl]-3-(3-fluoro-5-methylphenyl)quinolin-6-yl}-5-fluoro-2-hydroxybenzonitrile] | < 10
COCCOc1c(C#N)cc(F)cc1-c1ccc2ncc(-c3cc(C)cc(F)c3)c(N3CC[C@H](N)[C@H](O)C3)c2c1 (relative stereo) [2-220, cis-3-{4-[4-amino-3-hydroxypiperidin-1-yl]-3-(3-fluoro-5-methylphenyl)quinolin-6-yl}-5-fluoro-2-(2-methoxyethoxy)benzonitrile] | < 10
CON=Cc1cccc(-c2ccc3ncc(-c4cc(C)cc(F)c4)c(N4CC[C@H]5NCCO[C@@H]5C4)c3c2)c1O (relative stereo) [2-221, 2-{4-[trans-octahydro-1H-pyrido[3,4-b]morpholin-6-yl]-3-(3-fluoro-5-methylphenyl)quinolin-6-yl}-6-[(methoxyimino)methyl]phenol] | < 10
COCCOc1c(C#N)cccc1-c1ccc2ncc(-c3cc(F)cc(F)c3)c(N3CC[C@H](N)[C@H](O)C3)c2c1 (relative stereo) [2-225, cis-3-{4-[4-amino-3-hydroxypiperidin-1-yl]-3-(3,5-difluorophenyl)quinolin-6-yl}-2-(2-methoxyethoxy)benzonitrile] | < 10
COCCOc1c(C#N)cc(F)cc1-c1ccc2ncc(-c3cc(F)cc(F)c3)c(N3CC[C@H](N)[C@H](O)C3)c2c1 (relative stereo) [2-232, cis-3-{4-[4-amino-3-hydroxypiperidin-1-yl]-3-(3,5-difluorophenyl)quinolin-6-yl}-5-fluoro-2-(2-methoxyethoxy)benzonitrile] | < 10
COC(=O)Nc1c(F)cc(F)cc1-c1ccc2ncc(-c3cc(C)cc(F)c3)c(N3CC[C@@H](N)[C@H](OC)C3)c2c1 (relative stereo) [2-235, methyl N-(2-{4-[trans-4-amino-3-methoxypiperidin-1-yl]-3-(3-fluoro-5-methylphenyl)quinolin-6-yl}-4,6-difluorophenyl)carbamate] | < 10
Cn1cc(-c2ccc3ncc(-c4cc(F)cc(F)c4)c(N4CC[C@H]5NCCO[C@@H]5C4)c3c2)c(N)n1 (relative stereo) [2-245, 4-{4-[trans-octahydro-1H-pyrido[3,4-b]morpholin-6-yl]-3-(3,5-difluorophenyl)quinolin-6-yl}-1-methyl-1H-pyrazol-3-amine] | < 10
Cc1ccnc(-c2ccc3ncc(-c4cc(F)cc(F)c4)c(N4CC[C@H]5NCCO[C@@H]5C4)c3c2)c1N (relative stereo) [2-247, 2-{4-[trans-octahydro-1H-pyrido[3,4-b]morpholin-6-yl]-3-(3,5-difluorophenyl)quinolin-6-yl}-4-methylpyridin-3-amine] | < 10
COCCNc1c(C#N)cncc1-c1ccc2ncc(-c3cc(F)cc(F)c3)c(N3CC[C@H]4NCCO[C@@H]4C3)c2c1 (relative stereo) [2-252, 5-{4-[trans-octahydro-1H-pyrido[3,4-b]morpholin-6-yl]-3-(3,5-difluorophenyl)quinolin-6-yl}-4-[(2-methoxyethyl)amino]pyridine-3-carbonitrile] | < 10
Cn1ncc(-c2ccc3ncc(-c4cc(F)cc(F)c4)c(N4CC[C@H]5NCCO[C@@H]5C4)c3c2)c1C=NO (relative stereo) [2-253, N-[(4-{4-[trans-octahydro-1H-pyrido[3,4-b]morpholin-6-yl]-3-(3,5-difluorophenyl)quinolin-6-yl}-1-methyl-1H-pyrazol-5-yl)methylidene]hydroxylamine] | < 10
Nc1cncnc1-c1ccc2ncc(-c3cc(F)cc(F)c3)c(N3CC[C@H]4NCCO[C@@H]4C3)c2c1 (relative stereo) [2-255, 4-{4-[trans-octahydro-1H-pyrido[3,4-b]morpholin-6-yl]-3-(3,5-difluorophenyl)quinolin-6-yl}pyrimidin-5-amine] | 10 to 100
Oc1c(F)cncc1-c1ccc2ncc(-c3cc(F)cc(F)c3)c(N3CC[C@H]4NCCO[C@@H]4C3)c2c1 (relative stereo) [2-256] | 10 to 100
Cn1cc(-c2ccc3ncc(-c4cc(F)cc(F)c4)c(N4CC[C@H]5NCCO[C@@H]5C4)c3c2)c(C(N)=O)n1 (relative stereo) [2-257, 4-{4-[trans-octahydro-1H-pyrido[3,4-b]morpholin-6-yl]-3-(3,5-difluorophenyl)quinolin-6-yl}-1-methyl-1H-pyrazole-3-carboxamide] | 10 to 100
Oc1ncc(F)cc1-c1ccc2ncc(-c3cc(F)cc(F)c3)c(N3CC[C@H]4NCCO[C@@H]4C3)c2c1 (relative stereo) [2-259] | < 10
Cn1cc(-c2ccc3ncc(-c4cc(F)cc(F)c4)c(N4CC[C@H]5NCCO[C@@H]5C4)c3c2)c(C=NO)n1 (relative stereo) [2-260, N-[(4-{4-[trans-octahydro-1H-pyrido[3,4-b]morpholin-6-yl]-3-(3,5-difluorophenyl)quinolin-6-yl}-1-methyl-1H-pyrazol-3-yl)methylidene]hydroxylamine] | < 10
N#Cc1ccnc(-c2ccc3ncc(-c4cc(F)cc(F)c4)c(N4CC[C@H]5NCCO[C@@H]5C4)c3c2)c1F (relative stereo) [2-261, 2-{4-[trans-octahydro-1H-pyrido[3,4-b]morpholin-6-yl]-3-(3,5-difluorophenyl)quinolin-6-yl}-3-fluoropyridine-4-carbonitrile] | 10 to 100
Oc1cccnc1-c1ccc2ncc(-c3cc(F)cc(F)c3)c(N3CC[C@H]4NCCO[C@@H]4C3)c2c1 (relative stereo) [2-263, 2-{4-[trans-octahydro-1H-pyrido[3,4-b]morpholin-6-yl]-3-(3,5-difluorophenyl)quinolin-6-yl}pyridin-3-ol] | < 10
Nc1cc(F)cnc1-c1ccc2ncc(-c3cc(F)cc(F)c3)c(N3CC[C@H]4NCCO[C@@H]4C3)c2c1 (relative stereo) [2-265, 2-{4-[trans-octahydro-1H-pyrido[3,4-b]morpholin-6-yl]-3-(3,5-difluorophenyl)quinolin-6-yl}-5-fluoropyridin-3-amine] | < 10
CON=Cc1cncc(-c2ccc3ncc(-c4cc(F)cc(F)c4)c(N4CC[C@H]5NCCO[C@@H]5C4)c3c2)c1N (relative stereo) [2-266] | < 10
Nc1c(-c2ccc3ncc(-c4cc(F)cc(F)c4)c(N4CC[C@H]5NCCO[C@@H]5C4)c3c2)cncc1C1CC1 (relative stereo) [2-267, 3-{4-[trans-octahydro-1H-pyrido[3,4-b]morpholin-6-yl]-3-(3,5-difluorophenyl)quinolin-6-yl}-5-cyclopropylpyridin-4-amine] | 10 to 100
Nc1c(-c2ccc3ncc(-c4cc(F)cc(F)c4)c(N4CC[C@H]5NCCO[C@@H]5C4)c3c2)cnn1C1COC1 (relative stereo) [2-268, 4-{4-[trans-octahydro-1H-pyrido[3,4-b]morpholin-6-yl]-3-(3,5-difluorophenyl)quinolin-6-yl}-1-(oxetan-3-yl)-1H-pyrazol-5-amine] | 10 to 100
